Patent publication US11987588B2, “Modulators of the beta-3 adrenergic receptor useful for the treatment or prevention of heart failure and disorders related thereto” (Arena Pharmaceuticals, Inc., priority 2017, dated 2024)
pIC50: −log10 of the molar value.

Target: Beta-3 Adrenergic Receptor (Homo sapiens (Human), UniProt P13945)
Test: Homogeneous Time-Resolved Fluorescence (HTRF) cAMP antagonist assay, IC50 determination
Assay type: cell-based
Conditions: CHO-K1 cells stably expressing recombinant receptor, isoproterenol at EC90
Outline: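 In this functional readout, recombinant CHO-K1 cells received compound, then isoproterenol at its EC90. After 1 h at room temperature, cAMP levels were determined by HTRF using an on-plate standard curve, and IC50 values were fitted.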

Beta-3 Adrenergic Receptor, sequence (P13945 whole entry, species assumed): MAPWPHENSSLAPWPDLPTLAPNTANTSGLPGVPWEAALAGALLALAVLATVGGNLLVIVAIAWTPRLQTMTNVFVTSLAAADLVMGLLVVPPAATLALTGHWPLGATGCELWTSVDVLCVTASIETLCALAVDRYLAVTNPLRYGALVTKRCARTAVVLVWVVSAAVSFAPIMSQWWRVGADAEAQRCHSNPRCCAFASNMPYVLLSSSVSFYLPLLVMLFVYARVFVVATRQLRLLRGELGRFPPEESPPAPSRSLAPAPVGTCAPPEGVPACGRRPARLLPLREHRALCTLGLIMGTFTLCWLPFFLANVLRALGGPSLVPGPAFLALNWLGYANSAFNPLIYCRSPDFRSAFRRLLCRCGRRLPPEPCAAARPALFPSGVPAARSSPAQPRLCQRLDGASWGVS

Structure (SMILES) | pIC50
CNS(=O)(=O)c1cccc(OC[C@@H](O)CNC2COC3(CCN(S(=O)(=O)c4c(Cl)ccc5nsnc45)CC3)C2)c1 (stereo partly drawn) [Compound 197, 3-((2S)-3-(8-(5-chlorobenzo[c][1,2,5]thiadiazol-4-ylsulfonyl)-1-oxa-8-azaspiro[4.5]decan-3-ylamino)-2-hydroxypropoxy)-N-methylbenzenesulfonamide] | 7.89
O=S(=O)(NCCCO)c1cccc(OC[C@@H](O)CNC2COC3(CCN(S(=O)(=O)c4ccc5ccccc5c4)CC3)C2)c1 (stereo partly drawn) [Compound 51, 3-((2S)-2-hydroxy-3-(8-(naphthalen-2-ylsulfonyl)-1-oxa-8-azaspiro[4.5]decan-3-ylamino)propoxy)-N-(3-hydroxypropyl)benzenesulfonamide] | 7.23
CNS(=O)(=O)c1cccc(OC[C@@H](O)CNC2COC3(CCN(S(=O)(=O)c4cc(C)ccc4C#N)CC3)C2)c1 (stereo partly drawn) [Compound 180, 3-((2S)-3-(8-(2-cyano-5-methylphenylsulfonyl)-1-oxa-8-azaspiro[4.5]decan-3-ylamino)-2-hydroxypropoxy)-N-methylbenzenesulfonamide] | 7.53
CCOc1ccc(-c2ccc(CNC(C)C)cc2)cc1S(=O)(=O)N1CCC2(CC1)C[C@H](NC[C@H](O)COc1cccc(S(=O)(=O)NC)c1)CO2 [Compound 438, 3-((S)-3-((S)-8-(4-ethoxy-4′-((isopropylamino)methyl)biphenyl-3-ylsulfonyl)-1-oxa-8-azaspiro[4.5]decan-3-ylamino)-2-hydroxypropoxy)-N-methylbenzenesulfonamide] | 7.69
CNS(=O)(=O)c1cccc(OC[C@@H](O)CN[C@H]2COC3(CCN(c4nccc(C)n4)CC3)C2)c1 [Compound 575, 3-((S)-2-hydroxy-3-((R)-8-(4-methylpyrimidin-2-yl)-1-oxa-8-azaspiro[4.5]decan-3-ylamino)propoxy)-N-methylbenzenesulfonamide] | 6.67
CNS(=O)(=O)c1cccc(OC[C@@H](O)CNC2COC3(CCN(S(=O)(=O)c4ccc(C(=O)N(C)C)cc4)CC3)C2)c1 (stereo partly drawn) [Compound 24, 4-(3-((S)-2-hydroxy-3-(3-(N-methylsulfamoyl)phenoxy)propylamino)-1-oxa-8-azaspiro[4.5]decan-8-ylsulfonyl)-N,N-dimethylbenzamide] | 6.97
CNS(=O)(=O)c1cccc(OC[C@@H](O)CNC2COC3(CCN(S(=O)(=O)c4ccc(Cl)c(C)c4)CC3)C2)c1 (stereo partly drawn) [Compound 151, 3-((2S)-3-(8-(4-chloro-3-methylphenylsulfonyl)-1-oxa-8-azaspiro[4.5]decan-3-ylamino)-2-hydroxypropoxy)-N-methylbenzenesulfonamide] | 8.27
CNS(=O)(=O)c1cccc(OC[C@@H](O)CNC2COC3(CCN(S(=O)(=O)c4cc(F)ccc4C)CC3)C2)c1 (stereo partly drawn) [Compound 204, 3-((2S)-3-(8-(5-fluoro-2-methylphenylsulfonyl)-1-oxa-8-azaspiro[4.5]decan-3-ylamino)-2-hydroxypropoxy)-N-methylbenzenesulfonamide] | 7.92
CNS(=O)(=O)c1cccc(OC[C@@H](O)CN[C@H]2COC3(CCN(S(=O)(=O)c4cnc5c(c4)CCO5)CC3)C2)c1 [Compound 504, 3-((S)-3-((R)-8-(2,3-dihydrofuro[2,3-b]pyridin-5-ylsulfonyl)-1-oxa-8-azaspiro[4.5]decan-3-ylamino)-2-hydroxypropoxy)-N-methylbenzenesulfonamide] | 6.66
CNS(=O)(=O)c1cccc(OC[C@@H](O)CN[C@H]2COC3(CCN(S(=O)(=O)c4cccc(-c5cnn(C)c5)c4)CC3)C2)c1 [Compound 215, 3-((S)-2-hydroxy-3-((R)-8-(3-(1-methyl-1H-pyrazol-4-yl)phenylsulfonyl)-1-oxa-8-azaspiro[4.5]decan-3-ylamino)propoxy)-N-methylbenzenesulfonamide] | 8.13
CNS(=O)(=O)c1cccc(OC[C@@H](O)CNC2COC3(CCN(S(=O)(=O)c4cccc(C(F)(F)F)c4)CC3)C2)c1 (stereo partly drawn) [Compound 38, 3-((2S)-2-hydroxy-3-(8-(3-(trifluoromethyl)phenylsulfonyl)-1-oxa-8-azaspiro[4.5]decan-3-ylamino)propoxy)-N-methylbenzenesulfonamide] | 7.73
CNS(=O)(=O)c1cccc(OC[C@@H](O)CNC2COC3(CCN(S(=O)(=O)c4ccsc4)CC3)C2)c1 (stereo partly drawn) [Compound 196, 3-((2S)-2-hydroxy-3-(8-(thiophen-3-ylsulfonyl)-1-oxa-8-azaspiro[4.5]decan-3-ylamino)propoxy)-N-methylbenzenesulfonamide] | 7.40
COCCNS(=O)(=O)c1cccc(OC[C@@H](O)CN[C@H]2COC3(CCN(S(=O)(=O)c4cnc5cc[nH]c5c4)CC3)C2)c1 [Compound 530, 3-((S)-3-((R)-8-(1H-pyrrolo[3,2-b]pyridin-6-ylsulfonyl)-1-oxa-8-azaspiro[4.5]decan-3-ylamino)-2-hydroxypropoxy)-N-(2-methoxyethyl)benzenesulfonamide] | 6.67
CNS(=O)(=O)c1cccc(OC[C@@H](O)CN[C@H]2COC3(CCN(S(=O)(=O)c4cnc5c(c4)OCCO5)CC3)C2)c1 [Compound 480, 3-((S)-3-((R)-8-(2,3-dihydro-[1,4]dioxino[2,3-b]pyridin-7-ylsulfonyl)-1-oxa-8-azaspiro[4.5]decan-3-ylamino)-2-hydroxypropoxy)-N-methylbenzenesulfonamide] | 7.12
CN(C)S(=O)(=O)c1cccc(OC[C@@H](O)CNC2COC3(CCN(S(=O)(=O)c4cccc(-c5ccc(OCC#N)cc5)c4)CC3)C2)c1 (stereo partly drawn) [Compound 276, 3-((2S)-3-(8-(4′-(cyanomethoxy)biphenyl-3-ylsulfonyl)-1-oxa-8-azaspiro[4.5]decan-3-ylamino)-2-hydroxypropoxy)-N,N-dimethylbenzenesulfonamide] | 6.70
CNS(=O)(=O)c1cccc(OC[C@@H](O)CNC2COC3(CCN(S(=O)(=O)c4ccc5c(c4)N(CC(C)C)CCO5)CC3)C2)c1 (stereo partly drawn) [Compound 349, 3-((2S)-2-hydroxy-3-(8-(4-isobutyl-3,4-dihydro-2H-benzo[b][1,4]oxazin-6-ylsulfonyl)-1-oxa-8-azaspiro[4.5]decan-3-ylamino)propoxy)-N-methylbenzenesulfonamide] | 7.17
CNS(=O)(=O)c1cccc(OC[C@@H](O)CN[C@H]2COC3(CCN(S(=O)(=O)c4cn(CC(=O)O)c5ccccc5c4=O)CC3)C2)c1 [Compound 544, 2-(3-((R)-3-((S)-2-hydroxy-3-(3-(N-methylsulfamoyl)phenoxy)propylamino)-1-oxa-8-azaspiro[4.5]decan-8-ylsulfonyl)-4-oxoquinolin-1(4H)-yl)acetic acid] | 7.49
CNS(=O)(=O)c1cccc(OC[C@@H](O)CN[C@H]2COC3(CCN(S(=O)(=O)c4ccc5[nH]c(=O)[nH]c5c4)CC3)C2)c1 [Compound 499, 3-((S)-2-hydroxy-3-((R)-8-(2-oxo-2,3-dihydro-1H-benzo[d]imidazol-5-ylsulfonyl)-1-oxa-8-azaspiro[4.5]decan-3-ylamino)propoxy)-N-methylbenzenesulfonamide] | 7.14
CNS(=O)(=O)c1cccc(OC[C@@H](O)CNC2COC3(CCN(S(=O)(=O)c4ccc(OC)c(F)c4)CC3)C2)c1 (stereo partly drawn) [Compound 195, 3-((2S)-3-(8-(3-fluoro-4-methoxyphenylsulfonyl)-1-oxa-8-azaspiro[4.5]decan-3-ylamino)-2-hydroxypropoxy)-N-methylbenzenesulfonamide] | 7.63
